The results in this text go back to ChEMBL document CHEMBL1221277, “Design, synthesis and anticholinesterase activity of a novel series of 1-benzyl-4-((6-alkoxy-3-oxobenzofuran-2(3H)-ylidene) methyl) pyridinium derivatives” (Bioorg Med Chem, 2010).

Acetylcholinesterase, sequence (O42275 whole entry): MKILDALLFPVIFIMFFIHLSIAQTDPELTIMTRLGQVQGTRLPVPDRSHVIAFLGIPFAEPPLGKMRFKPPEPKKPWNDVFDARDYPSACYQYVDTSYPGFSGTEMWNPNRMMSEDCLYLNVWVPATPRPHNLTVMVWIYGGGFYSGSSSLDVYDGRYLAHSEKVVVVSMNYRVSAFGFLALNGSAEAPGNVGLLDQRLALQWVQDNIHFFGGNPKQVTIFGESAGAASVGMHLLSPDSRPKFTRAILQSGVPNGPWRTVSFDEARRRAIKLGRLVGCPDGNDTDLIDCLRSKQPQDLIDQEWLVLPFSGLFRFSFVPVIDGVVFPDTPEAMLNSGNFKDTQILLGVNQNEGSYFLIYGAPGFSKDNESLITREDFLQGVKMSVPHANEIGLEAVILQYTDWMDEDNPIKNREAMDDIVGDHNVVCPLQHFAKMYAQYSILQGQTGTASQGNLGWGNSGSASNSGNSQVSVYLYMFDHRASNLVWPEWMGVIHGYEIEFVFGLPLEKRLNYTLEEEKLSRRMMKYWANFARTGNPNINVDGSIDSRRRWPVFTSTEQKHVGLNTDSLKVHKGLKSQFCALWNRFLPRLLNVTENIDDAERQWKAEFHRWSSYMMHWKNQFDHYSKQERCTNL

This test addresses Acetylcholinesterase (Electrophorus electricus, UniProt O42275). The test is described as follows: Inhibition of electric eel AChE by Ellman's method. For orientation: In Ellman's method for cholinesterases, released thiocholine reacts with DTNB.
For orientation: IC50 means the concentration that inhibits the measured activity by half. The molecule `CCCOc1ccc2c(c1)O/C(=C\c1cc[n+](Cc3ccc(C)cc3)cc1)C2=O` displayed an IC50 of 612 nM. As for `CCOc1ccc2c(c1)O/C(=C\c1cc[n+](Cc3ccc(C)cc3)cc1)C2=O`, the midpoint of inhibition, the IC50, lay at 790 nM. Turning to `CCCOc1ccc2c(c1)O/C(=C\c1cc[n+](Cc3ccccc3)cc1)C2=O`, the IC50 amounted to 80 nM. This IC50 is about 9.9-fold lower than that of the molecule before. With `CCCOc1ccc2c(c1)O/C(=C\c1cc[n+](Cc3ccccc3F)cc1)C2=O` the figure was 50 nM; with `CCCOc1ccc2c(c1)O/C(=C\c1cc[n+](Cc3cccc(F)c3)cc1)C2=O`, 107 nM; with `CCCOc1ccc2c(c1)O/C(=C\c1cc[n+](Cc3ccc(F)cc3)cc1)C2=O`, 68 nM. With `CCCOc1ccc2c(c1)O/C(=C\c1cc[n+](Cc3ccccc3C)cc1)C2=O` the figure was 328 nM; with `CCCOc1ccc2c(c1)O/C(=C\c1cc[n+](Cc3cccc(C)c3)cc1)C2=O`, 234 nM; with `COc1ccc2c(c1)O/C(=C\c1cc[n+](Cc3ccc(C)cc3)cc1)C2=O`, 475 nM. Then `CCOc1ccc2c(c1)O/C(=C\c1cc[n+](Cc3ccccc3)cc1)C2=O`, with 63 nM; and `CCOc1ccc2c(c1)O/C(=C\c1cc[n+](Cc3ccccc3F)cc1)C2=O`, with 32 nM; and `CCOc1ccc2c(c1)O/C(=C\c1cc[n+](Cc3cccc(F)c3)cc1)C2=O`, with 48 nM. Regarding `CCOc1ccc2c(c1)O/C(=C\c1cc[n+](Cc3ccc(F)cc3)cc1)C2=O`, the IC50 turned out to be 51 nM. With `CCOc1ccc2c(c1)O/C(=C\c1cc[n+](Cc3ccccc3C)cc1)C2=O` the figure was 546 nM. Then `CCOc1ccc2c(c1)O/C(=C\c1cc[n+](Cc3cccc(C)c3)cc1)C2=O`, with 399 nM. Then `COc1ccc2c(c1)O/C(=C\c1cc[n+](Cc3ccccc3)cc1)C2=O`, with 41 nM; and `COc1ccc2c(c1)O/C(=C\c1cc[n+](Cc3ccccc3F)cc1)C2=O`, with 10 nM; and `COc1ccc2c(c1)O/C(=C\c1cc[n+](Cc3cccc(F)c3)cc1)C2=O`, with 60 nM. In turn, `COc1ccc2c(c1)O/C(=C\c1cc[n+](Cc3ccc(F)cc3)cc1)C2=O` displayed an IC50 of 22 nM. This IC50 lies about 2.7-fold lower than the previous one. With `COc1ccc2c(c1)O/C(=C\c1cc[n+](Cc3ccccc3C)cc1)C2=O` the figure was 68 nM; with `COc1ccc2c(c1)O/C(=C\c1cc[n+](Cc3cccc(C)c3)cc1)C2=O`, 123 nM.
